Measurements: article PMC3781034, “A Small-Animal Pharmacokinetic/Pharmacodynamic PET Study of Central Serotonin 1A Receptor Occupancy by a Potential Therapeutic Agent for Overactive Bladder” (PLoS ONE, 2013)
pEC50, pKi: −log10 of the molar value. Where two headings read alike, the source gives them in different places.

Columns and labels:
micturition interval = assay: Superior colliculus lesion (SCL) model, cystometry; format: in vivo, female SD rats
Method: For lesioning of the brain to stimulate the micturition reflex, anesthesia was induced in female SD rats with 4% halothane and an N2O/O2 (2:1) gas mixture, it was maintained with 2% halothane, and each animal was mounted onto a stereotaxic apparatus. […] Catheter implantations and cystometric investigations were performed with the same methodologies as in the 5-HT1A receptor agonist-induced model. E2110 (0.1, 0.3 or 1 mg/kg) or vehicle was administered to four groups of eight conscious rats orally. The three micturition intervals were obtained and drug-induced changes in the micturition intervals were evaluated. In this assay, the post-administration micturition interval was defined as the average of the micturition intervals over an observation period between 0.5 and 1 hour after administration.
Data are expressed as mean ± standard error of mean (S.E.M). In the pharmacological study, the statistical significance of differences between the vehicle- and E2110-treated groups was tested using one-way analysis of variance (ANOVA) followed by Dunnett’s multiple comparison test. A probability (p) value of <0.05 (two-sided) was considered statistically significant. All statistical analyses were performed using the SAS software package version 8.1 or 8.2 (SAS Institute Japan Ltd., Tokyo, Japan).

rat 5-HT1A receptor = target: T1, rat 5-HT1A receptor (Rattus norvegicus, UniProt P19327); assay: Binding assay in rat hippocampal membrane fraction ([3H]MPPF); details: rat hippocampal membranes, 0.3 nM [3H]MPPF, 25°C 60 min; read-out: Ki, 5-HT1A receptor affinity
T1 construct: from tissue; host or cells: rat hippocampus, membrane (microsomal) fraction
T1 sequence (P19327 1-422): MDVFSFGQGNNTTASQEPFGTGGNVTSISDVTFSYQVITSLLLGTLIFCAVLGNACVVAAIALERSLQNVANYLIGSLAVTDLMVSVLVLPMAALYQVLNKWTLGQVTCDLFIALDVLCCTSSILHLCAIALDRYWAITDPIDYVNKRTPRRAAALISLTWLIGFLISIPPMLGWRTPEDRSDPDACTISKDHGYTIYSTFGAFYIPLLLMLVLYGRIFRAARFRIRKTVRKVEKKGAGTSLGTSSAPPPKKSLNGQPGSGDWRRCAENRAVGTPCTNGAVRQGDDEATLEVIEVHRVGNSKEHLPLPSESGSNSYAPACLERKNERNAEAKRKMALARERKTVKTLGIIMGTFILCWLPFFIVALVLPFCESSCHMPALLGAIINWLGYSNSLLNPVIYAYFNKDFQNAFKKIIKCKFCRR
Method: Rat hippocampal samples were weighed, homogenized in 10-fold volume of 50 mM Tris-HCl (pH 7.4) on an ice bath, and centrifuged (50,000×g, 4°C, 20 min). The precipitate was further homogenized in a 10-fold volume of 50 mM Tris-HCl (pH 7.4) on an ice bath and centrifuged (50,000×g, 4°C, 20 min). The obtained precipitate was homogenized in 50 mM Tris-HCl (pH 7.4) to render a concentration of 100 mg tissue eq./mL. The obtained microsomal fraction was stored as a receptor stock solution at -80°C until use. […] MPPF in a total 1-ml reaction volume at 25°C for 60 min. The reaction was terminated, and bound radioactivity was separated from free radioligands by filtering and washing three times with 3 ml of 50 mM Tris-HCl (pH 7.4). The radioactivity content of the filters in 5 ml of liquid scintillator (Atomlight; PerkinElmer) was counted by TR2500 scintillation counter (PerkinElmer Life & Analytical Sciences). The specific binding was determined as the difference between total and nonspecific binding, measured in the absence and presence of 100 µM 5-HT. Data were analyzed by Scatchard plot to estimate equilibrium constant (Kd) values. For the competition experiments, binding assays were carried out using 0.3 nM [^3H] […] MPPF according to the following equation:
Ki=IC50/1+[radioligand]/Kd (1)
where [radioligand] means the concentration of the radioligand used.

5-HT1A receptors = target: T2, 5-HT1A receptors (Rattus norvegicus, UniProt P19327); assay: PET 5-HT1A receptor occupancy, dose-response study ([11C]WAY-100635, Emax model); format: in vivo, Sprague-Dawley rat; details: for pEC50: free CNS concentration assumed one-tenth of free plasma, read-out: in vivo EC50 corrected for the difference in free drug concentrations between plasma and CNS
T2 construct: occupancy of 5-HT1A receptors in living Sprague-Dawley rat brains; from tissue; host or cells: living Sprague-Dawley rat brain (medial prefrontal cortex, dorsal raphe nucleus), in vivo PET
T2 sequence (P19327 1-422): T1 sequence (P19327 1-422)
Method: All PET scans for rats were performed with a small animal-dedicated microPET FOCUS 220 system (Siemens Medical Solutions USA, Knoxville, TN, USA), which yields a 25.8 cm (transaxial) × 7.6 cm (axial) field of view (FOV) and a spatial resolution of 1.3 mm full width at half maximum at the center of FOV [8]. The rats were anesthetized with 1.5-2% isoflurane in air (2 L/min flow rate). Their body temperature was controlled using homeothermic controller and plate with a rectal probe, and their heart rates and arterial oxygen saturations were continuously measured by a pulse oximeter (CANL-425SVA; Med Associates, St. Albans, VT, USA). We also monitored respiration rates of these animals with a custom-made monitoring system (Nagano Electronics, Hitachinaka, Japan). A 20-min transmission scan for attenuation correction was performed using a spiraling ^68Ge-^68Ga point source. Subsequently, list-mode scans were carried out for 90 min. All list-mode data were sorted and Fourier rebinned into two-dimensional sinograms (frames: 4 × 1, 8 × 2, and 14 × 5 min). Images were thereafter reconstructed using two-dimensional filtered back-projection with a 0.5-mm Hanning filter. [^11C]-WAY-100635 was injected via the tail vein as a single bolus at the start of emission scanning. The injected dose of the radiotracer was 85.3 ± 28.6 MBq/rat (mean ± SD).
Anatomical regions of interest (ROIs) were placed on the medial prefrontal cortex (MPFC) and dorsal raphe nucleus (DRN) using PMOD® image software (PMOD Group, Zurich, Switzerland) with reference to the MRI template. Radioligand binding was examined by calculating the binding potential (BP ND; ratio at equilibrium of specifically-bound radioligand to that of nondisplaceable radioligand in tissue) based on a simplified reference tissue model (SRTM) using the cerebellar time-radioactivity curve as reference.
Occupancy of 5-HT1A receptors by E2110 was calculated using the following equation:
RO(%)=BPND,baseline−BPND,drug/BPND,baseline×100 (2)
where BP ND, baseline and BP ND, drug are estimated BP ND at baseline and following drug administration, respectively.
To examine the dose-RO relationship at a single time point, four male SD rats, which had undergone a baseline PET imaging in advance, were scanned with PET at 4 hours after being pretreated with 4 oral doses (0.3, 1, 3, 10 mg/kg) of E2110. In this assay, approximately 250 µL of blood samples were collected from the tail vein upon initiation of the scan for quantification of plasma concentration of E2110. We further examined RO at different time points after the drug administration by conducting PET scans of four male SD rats at 2, 4, 6 or 8 hours after pretreatment with a single oral dose of 1 mg/kg E2110. In addition to this series of PET assays for male rats, pilot PET scans for female rats (n = 3) were carried out at baseline and 4 hours after oral administration of 0.1 mg/kg E2110 to examine whether relationships between plasma concentration of E2110 and RO by this drug in the brain are consistent between two genders. In all experiments, scans for the same individual receiving E2110 were conducted more than 1 week apart.
As described in previous studies on 5-HT1A receptor antagonists the relationship between RO and plasma drug concentration at equilibrium can be described according to the law of mass action by the curvilinear function, based on the assumption that the free brain concentration is equal to free plasma concentration and the free fraction in plasma is not concentration-dependent:
RO(%)=ROmax/Kdapp+CpCp (3)
where ROmax is the maximum occupancy that can be induced by E2110, Kd ^app the apparent equilibrium constant, and Cp the plasma concentration of E2110. This model is analogous to the Emax model:
where Emax (ROmax) is the maximum effect (maximum RO) and EC50 (= Kd) is the E2110 plasma concentration required to produce 50% of Emax. […]

## CNC(=O)c1ccc2ccn(C3CCN(CCc4c(OC)ccc5c4OC(C)(C)CC5=O)CC3)c2c1.O=C(O)/C=C/C(=O)O [E2110, 1-{1-[2-(7-Methoxy-2,2-dimethyl-4-oxochroman-8-yl)ethyl]piperidine-4-yl}-N-methyl-1H-indole-6-carboxamide fumarate]
Micturition interval; SCL model, oral
  minimum dose exerting overt therapeutic effects on the micturition reflex: 0.3 mg/kg
Micturition interval; oral 0.3-1 mg/kg, SCL female SD rats, 0.5-1 hour after administration
  effect on micturition interval: significantly (p < 0.05) prolonged the micturition intervals
Rat 5-HT1A receptor
  pKi: 10.35
5-HT1A receptors; 3 and 10 mg/kg oral, 4 h, both ROIs (MPFC, DRN)
  5-HT1A RO at high doses: full occupancy
5-HT1A receptors; DRN, dose-response study, 4 h after oral 0.3-10 mg/kg, male SD rats, Emax model, read-out: EC50 (plasma concentration required for 50% 5-HT1A RO) (converted)
  EC50: 5.4 nM
5-HT1A receptors; DRN, dose-response study, Emax model, read-out: EC50 (plasma concentration required for 50% 5-HT1A RO) (converted)
  EC50: 4.36 nM
5-HT1A receptors; DRN, dose-response study, EC50 x unbound fraction in plasma, read-out: free concentration-based EC50 for 5-HT1A RO (converted)
  EC50: 0.32 nM
5-HT1A receptors; DRN, dose-response study, read-out: free concentration-based EC50 for 5-HT1A RO (converted)
  EC50: 0.264 nM
5-HT1A receptors; DRN
  pEC50: 10.49
5-HT1A receptors; MPFC and DRN, dose-response study
  free concentration-based EC50 relative to in vitro Ki: approximately 10 fold
5-HT1A receptors; MPFC, dose-response study, 4 h after oral 0.3-10 mg/kg, male SD rats, Emax model, read-out: EC50 (plasma concentration required for 50% 5-HT1A RO) (converted)
  EC50: 7.51 nM
5-HT1A receptors; MPFC, dose-response study, Emax model, read-out: EC50 (plasma concentration required for 50% 5-HT1A RO) (converted)
  EC50: 6.08 nM
5-HT1A receptors; MPFC, dose-response study, EC50 x unbound fraction in plasma, read-out: free concentration-based EC50 for 5-HT1A RO (converted)
  EC50: 0.45 nM
5-HT1A receptors; MPFC, dose-response study, read-out: free concentration-based EC50 for 5-HT1A RO (converted)
  EC50: 0.363 nM
5-HT1A receptors; MPFC
  pEC50: 10.35
5-HT1A receptors; single oral doses of 0.3, 1, 3, and 10 mg/kg, each region
  5-HT1A RO, dose dependence: dose-dependently induced 5-HT1A RO
